Experimental data published in US12187758B2 (ROME Therapeutics, Inc., priority 2022, dated 2025).

What was measured:
Type in all cases: cell-based
[1] = Mitochondria toxicity assay with PC3 cells, in-cell ELISA COX-1; settings: 5 days treatment
Outline: (§1)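 This in-cell ELISA was run on fixed, permeabilized PC3 cells after 5-day exposure to titrated compound, with cytotoxicity measured on a duplicate plate. Results are reported as categories A (<1.0 μM) to E (>100.0 μM).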

PC3 cells = test: Mitochondria toxicity assay with PC3 cells, cytotoxicity (Cell Titer Glo); settings: Homo sapiens, PC-3, 120 h, 5 days treatment
Outline: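 PC3 cells in F-12K with 10% FBS exposed to a compound dose titration for 5 days at 37° C, 5% CO2. Viability by Cell Titer Glo luminescence after 30 min at room temperature; values binned A (<1.0 μM) to E (>100.0 μM).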

THP1-Dual KO-TREX1 cells = test: THP1 TREX1 KO inhibition assay (type 1 interferon response); settings: Homo sapiens, 144 h, type 1 interferon (QUANTI-LUC), 1 μM 5-aza-2′-deoxycytidine, six days
Outline: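 THP1-Dual KO-TREX1 cells were treated with a dose titration of compound, alone or with 1 μM 5-aza-2′-deoxycytidine, for six days at 37 °C. Type 1 interferon was read as secreted luciferase (QUANTI-LUC) in the supernatant, and viability by CellTiter-Glo luminescence.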

[2] = test system: SDH-A (succinate dehydrogenase-A); test: Mitochondria toxicity assay with PC3 cells, in-cell ELISA SDH-A; settings: 5 days treatment
Outline: as §1

Structure (SMILES)	IC50 (THP1-Dual KO-TREX1 cells) [µM]	IC50 [1] [µM]	IC50 (PC3 cells) [µM]	IC50 [2] [µM]
CC[C@]1(CO)O[C@@H](n2cnc3c(=O)[nH]c(N)nc32)C[C@@H]1O [Compound 115, 2-amino-9-((2R,4S,5R)-5-ethyl-4-hydroxy-5-(hydroxymethyl)tetrahydro-furan-2-yl)-1,9-dihydro-6H-purin-6-one]	> 1	1 to 10	1 to 10	1 to 10
Nc1nc(=O)n([C@H]2C[C@H](O)[C@](CO)(C3CC3)O2)cc1F [Compound 120, 4-amino-1-[(2R,4S,5R)-5-cyclopropyl-4-hydroxy-5-(hydroxymethyl)oxolan-2-yl]-5-fluoropyrimidin-2-one]	> 1	> 100	> 100	> 100
Nc1nc(=O)n([C@@H]2O[C@](/C=C\F)(CO)[C@@H](O)[C@@H]2F)cc1F [Compound 123, 4-amino-5-fluoro-1-((2R,3S,4R,5R)-3-fluoro-5-((Z)-2-fluorovinyl)-4-hydroxy-5-(hydroxymethyl)tetrahydrofuran-2-yl)pyrimidin-2(1H)-one]	> 1	> 100	> 100	> 100
Nc1nc(=O)n([C@@H]2O[C@](/C=C/Cl)(CO)[C@@H](O)[C@@H]2F)cc1F [Compound 131, 4-amino-1-[(2R,3S,4R,5R)-5(E)-(2-chloroethenyl)-3-fluoro-4-hydroxy-5-(hydroxymethyl)oxolan-2-yl]-5-fluoropyrimidin-2-one]	> 1	> 100	> 100	> 100
C=C=C[C@]1(CO)O[C@@H](n2cnc3c(N)nc(F)nc32)C[C@@H]1O [Compound 164, (2R,3S,5R)-5-(6-amino-2-fluoropurin-9-yl)-2-(hydroxymethyl)-2-(propa-1,2-dien-1-yl) oxolan-3-ol]	> 1	> 100	> 100	> 100
Cc1cn([C@@H]2O[C@@](CO)(CCl)[C@@H](O)[C@@H]2F)c(=O)[nH]c1=O [Compound 176]	> 1	> 100	> 100	> 100
Cc1cn([C@@H]2O[C@@](CO)(N=[N+]=[N-])[C@@H](O)[C@@H]2F)c(=O)[nH]c1=O [Compound 178, 1-((2R,3S,4R,5R)-5-azido-3-fluoro-4-hydroxy-5-(hydroxymethyl)tetrahydrofuran-2-yl)-5-methylpyrimidine-2,4(1H,3H)-dione]	> 1	10 to 50	> 100	> 100
O=c1[nH]c(=O)n([C@@H]2O[C@@](CO)(CCO)[C@@H](O)[C@@H]2F)cc1F [Compound 179, 5-fluoro-1-((2R,3S,4R,5R)-3-fluoro-4-hydroxy-5-(2-hydroxyethyl)-5-(hydroxymethyl)tetrahydrofuran-2-yl) pyrimidine-2,4(1H,3H)-dione]	> 1	> 100	> 100	> 100
Cc1cn([C@H]2C[C@H](F)[C@@](C)(CO)O2)c(=O)[nH]c1=O [Compound 180, 1-((2R,4S,5R)-4-fluoro-5-(hydroxymethyl)-5-methyltetrahydrofuran-2-yl)-5-methylpyrimidine-2,4(1H,3H)-dione]	> 1	> 100	> 100	> 100

Now from value to molecule, other results behind:

IC50 (THP1-Dual KO-TREX1 cells) [µM]	Structure (SMILES)	IC50 [1] [µM]	IC50 (PC3 cells) [µM]	IC50 [2] [µM]
> 1	Nc1ccn([C@@H]2O[C@@](CO)(CF)[C@@H](O)[C@@H]2F)c(=O)n1 [Compound 113, 4-amino-1-((2R,3S,4R,5R)-3-fluoro-5-(fluoromethyl)-4-hydroxy-5-(hydroxymethyl)-tetrahydrofuran-2-yl)pyrimidin-2(1H)-one]	< 1	< 1	< 1
> 1	Nc1ccn([C@@H]2O[C@@](CO)(CCl)[C@@H](O)[C@@H]2O)c(=O)n1 [Compound 114, 4-amino-1-((2R,3S,4S,5R)-5-(chloromethyl)-3,4-dihydroxy-5-(hydroxymethyl)tetrahydro-furan-2-yl)pyrimidin-2(1H)-one]	> 100	> 100	> 100
> 1	Nc1ccn([C@@H]2O[C@@](CO)(CCl)[C@@H](O)C2(F)F)c(=O)n1 [Compound 119, 4-amino-1-((2R,4R,5R)-5-(chloromethyl)-3,3-difluoro-4-hydroxy-5-(hydroxymethyl)tetrahydrofuran-2-yl)pyrimidin-2(1H)-one]	1 to 10	1 to 10	1 to 10
> 1	Nc1ccn([C@@H]2O[C@@](CO)(C3CC3)[C@@H](O)[C@@H]2F)c(=O)n1 [Compound 121, 4-amino-1-[(2R,3S,4R,5R)-5-cyclopropyl-3-fluoro-4-hydroxy-5-(hydroxymethyl)oxolan-2-yl] pyrimidin-2-one]	> 100	> 100	> 100
> 1	Nc1nc(=O)n([C@@H]2O[C@@](CO)(C3CC3)[C@@H](O)[C@@H]2F)cc1F [Compound 122, 4-amino-1-[(2R,3S,4R,5R)-5-cyclopropyl-3-fluoro-4-hydroxy-5-(hydroxymethyl)oxolan-2-yl]-5-fluoropyrimidin-2-one]	> 100	> 100	> 100
> 1	Nc1nc(=O)n([C@@H]2O[C@@](CO)(CCl)[C@@H](O)[C@@H]2Cl)cc1F [Compound 137, 4-amino-1-[(2R,3S,4R,5R)-3-chloro-5-(chloromethyl)-4-hydroxy-5-(hydroxymethyl)oxolan-2-yl]-5-fluoropyrimidin-2-one]	> 100	> 100	> 100
0.25 to 1	[N-]=[N+]=N[C@]1(CO)O[C@@H](n2cc(F)c(N)nc2=O)[C@@H](F)[C@@H]1O [Compound 165]	< 1	> 100	< 1
> 1	Nc1ccn([C@@H]2O[C@@](CO)(CBr)[C@@H](O)[C@@H]2F)c(=O)n1 [Compound 172]	> 100	> 100	> 100
0.25 to 1	[2H]C([2H])(Cl)[C@]1(CO)O[C@@H](n2cc(F)c(N)nc2=O)[C@@H](F)[C@@H]1O [Compound 175, 4-amino-1-((2R,3S,4R,5R)-5-(chloromethyl-d2)-3-fluoro-4-hydroxy-5-(hydroxymethyl)tetrahydrofuran-2-yl)-5-fluoropyrimidin-2(1H)-one]	> 100	> 100	> 100
> 1	Nc1nc(=O)n([C@@H]2OC(CO)(CO)[C@@H](O)[C@@H]2F)cc1F [Compound 177, 4-amino-5-fluoro-1-((2R,3S,4R)-3-fluoro-4-hydroxy-5,5-bis(hydroxymethyl)tetrahydrofuran-2-yl) pyrimidin-2(1H)-one]	> 100	> 100	> 100
